In one data set the test system is CCRF-CEM. The data set is described as follows: Cytotoxicity against human CEM cells after 4 days by Coulter counter analysis. Conditions: 96 h, read-out: EC50 (the source's name). Type of data set: cell-based.
For data set [1], the system named is Human immunodeficiency virus 1. Description: Antiviral activity against HIV1 3B infected in human CEM cells assessed as inhibition of virus-induced cytopathicity after 4 days. Type of data set: functional, organism-based. Conditions: Human immunodeficiency virus 1, 3B, CCRF-CEM, 96 h. In general terms: Cytopathic effects are the visible damage that an infection or toxin causes in cultured cells.

For data set [2], the system named is Human immunodeficiency virus 2. Description: Antiviral activity against HIV2 ROD infected in human CEM cells assessed as inhibition of virus-induced cytopathicity after 4 days. Conditions: Human immunodeficiency virus 2, ISOLATE ROD, CCRF-CEM, 96 h. In kind it is functional, organism-based.
In data set [3] the test system is Human immunodeficiency virus 1. Description: Binding affinity to HIV1 3B recombinant gp-120 at 50 uM after 5 mins by surface plasmon resonance analysis. (In general: Surface plasmon resonance follows binding to a sensor surface in real time, without labels.)
For data set [4], the system named is PBMC. The data set is described as follows: Induction of HLA-DR expression in human PBMC after 3 days by FACS analysis. In kind it is functional, cell-based. (In general: A flow cytometer gives signals particle by particle.)
Data set [5] is described as follows: Binding affinity to HIV1 ADA recombinant gp-120 after 5 mins using low density (792 RU) sensor chip by surface plasmon resonance analysis. Details: species or system Human immunodeficiency virus 1.
For data set [6], the system named is PBMC. The data set is described as follows: Induction of CD69 expression in human PBMC after 3 days by FACS analysis. Type of data set: functional, cell-based.
In data set [7] the test system is PBMC. The data set is described as follows: Induction of CD25 expression in human PBMC after 3 days by FACS analysis. Type of data set: functional, cell-based.
Data set [8] concerns Human immunodeficiency virus 1. Description: Binding affinity to HIV1 3B recombinant gp-120 at 12.5 uM after 5 mins by surface plasmon resonance analysis in presence of […].
In data set [9] the test system is PBMC. Description: Cytotoxicity against human PBMC at 50 uM after 3 days. In kind it is cell-based. Conditions: 72 h.
In data set [10] the test system is PBMC. The data set is described as follows: Mitogenic activity in human PBMC after 3 days. Type of data set: functional, cell-based.
A short description of data set [11]: Binding affinity to HIV1 3B recombinant gp-120 after 5 mins using low density (792 RU) sensor chip by surface plasmon resonance analysis. Details: species or system Human immunodeficiency virus 1.
Data set [12] is described as follows: Binding affinity to HIV1 3B recombinant gp-120 after 5 mins using high density (10400 RU) sensor chip by surface plasmon resonance analysis. Details: species or system Human immunodeficiency virus 1.
The subject of data set [13] is Human immunodeficiency virus 1. The data set is described as follows: Binding affinity to HIV1 3B recombinant gp-120 at 12.5 uM after 5 mins by surface plasmon resonance analysis.
Data set [14] concerns Human immunodeficiency virus 1. Description: Antiviral activity against HIV1 3a-L infected in human PBMC cells assessed as inhibition of virus-induced cytopathicity after 4 days. Type of data set: functional, organism-based. Conditions: Human immunodeficiency virus 1, 3a-L, 96 h.
Data set [15] in a line: Solubility of the compound at >10 uM. In kind it is physicochemical.

Results on 20 compounds are retold here after ChEMBL document CHEMBL1811857, “Targeting HIV entry through interaction with envelope glycoprotein 120 (gp120): synthesis and antiviral evaluation of 1,3,5-triazines with aromatic amino acids” (J Med Chem, 2011).

The EC50 is the midpoint of the concentration-response curve. As usually defined, the Kd is the free concentration of one partner at which half of the binding sites on the other are occupied at equilibrium, for simple one-to-one binding.

Active and inactive are the calls of the source. The rule behind the calls is not given here.

For the compound `O=C(O)[C@H](Cc1ccc(O)cc1)Nc1nc(N[C@@H](Cc2ccc(O)cc2)C(=O)O)nc(N2CCN(c3nc(N[C@@H](Cc4ccc(O)cc4)C(=O)O)nc(N[C@@H](Cc4ccc(O)cc4)C(=O)O)n3)CC2)n1`, the CC50 with CCRF-CEM was greater than 250 µM. Further, the EC50 in data set [1] and in data set [2] was no less than 250 µM each time.

Turning to `O=C(O)[C@H](Cc1c[nH]c2ccccc12)Nc1nc(NCCN(CCNc2nc(N[C@@H](Cc3c[nH]c4ccccc34)C(=O)O)nc(N[C@H](Cc3c[nH]c4ccccc34)C(=O)O)n2)CCNc2nc(N[C@@H](Cc3c[nH]c4ccccc34)C(=O)O)nc(N[C@H](Cc3c[nH]c4ccccc34)C(=O)O)n2)nc(N[C@H](Cc2c[nH]c3ccccc23)C(=O)O)n1`, the CC50 with CCRF-CEM was greater than 250 µM. Besides, the EC50 in data set [1] turned out to be 20 µM; in [2], 65 µM.

As to `O=C(O)[C@H](Cc1c[nH]c2ccccc12)Nc1nc(NCc2ccccc2)nc(N[C@@H](Cc2c[nH]c3ccccc23)C(=O)O)n1`, the outcome in [3] was inactive.

Take `O=C(O)[C@H](Cc1c[nH]c2ccccc12)Nc1nc(NCCOCCOCCNc2nc(N[C@@H](Cc3c[nH]c4ccccc34)C(=O)O)nc(N[C@H](Cc3c[nH]c4ccccc34)C(=O)O)n2)nc(N[C@@H](Cc2c[nH]c3ccccc23)C(=O)O)n1`: in the data set with CCRF-CEM, the CC50 is greater than 250 µM. The EC50 was found to be 112 µM in data set [1] and 120 µM in data set [2].

Turning to `O=C(O)[C@H](Cc1ccccc1)Nc1nc(N[C@@H](Cc2ccccc2)C(=O)O)nc(N2CCN(c3nc(N[C@@H](Cc4ccccc4)C(=O)O)nc(N[C@@H](Cc4ccccc4)C(=O)O)n3)CC2)n1`, the CC50 in the data set with CCRF-CEM was greater than 250 µM. In addition, the EC50 came to 106 µM in [1] and 121 µM in data set [2].

With `CN[C@@H]1[C@H](O[C@@H]2OC[C@@H](O)[C@H](O)[C@H]2O)[C@@H](O)[C@H](O[C@H]2c3cc(C)c(C(=O)N[C@H](C)C(=O)O)c(O)c3-c3c(cc4c(c3O)C(=O)c3cc(OC)cc(O)c3C4=O)[C@@H]2O)O[C@@H]1C` [PRADIMICIN A], the CC50 in the data set on CCRF-CEM is greater than 50 µM. For the same compound, the EC50 in data set [1] came to 5.2 µM; in data set [2], 5.9 µM.

As to `O=C(O)[C@H](Cc1ccc(O)cc1)Nc1nc(NCCN(CCNc2nc(N[C@@H](Cc3ccc(O)cc3)C(=O)O)nc(N[C@H](Cc3ccc(O)cc3)C(=O)O)n2)CCNc2nc(N[C@@H](Cc3ccc(O)cc3)C(=O)O)nc(N[C@H](Cc3ccc(O)cc3)C(=O)O)n2)nc(N[C@H](Cc2ccc(O)cc2)C(=O)O)n1`, in the data set with CCRF-CEM, the CC50 was greater than 250 µM. Further, the EC50 in data set [1] and in data set [2] was no less than 250 µM throughout.

With `CCc1c(CNc2nc(N[C@@H](Cc3ccc(O)cc3)C(=O)O)nc(N[C@@H](Cc3ccc(O)cc3)C(=O)O)n2)c(CC)c(CNc2nc(N[C@@H](Cc3ccc(O)cc3)C(=O)O)nc(N[C@@H](Cc3ccc(O)cc3)C(=O)O)n2)c(CC)c1CNc1nc(N[C@@H](Cc2ccc(O)cc2)C(=O)O)nc(N[C@@H](Cc2ccc(O)cc2)C(=O)O)n1`, the CC50 with CCRF-CEM is greater than 250 µM. The result in the data set on PBMC [4], in the data set on PBMC [6], in the data set on PBMC [7] and with PBMC [10] was inactive. In addition, the Kd in data set [5] was determined as 1.71 µM; in data set [11] it was 1.97 µM; in data set [12] it was 2.61 µM. Besides, the outcome in [8], in [3] and in data set [13] was Active. Also, the Activity entry with PBMC [9] is “Non-toxic”. Further, the EC50 amounted to 22 µM in data set [1], 22 µM in data set [2] and 20 µM in data set [14].

Consider `CCc1c(CNc2nc(N[C@@H](Cc3ccc(O)cc3)C(=O)O)nc(N[C@@H](Cc3c[nH]c4ccccc34)C(=O)O)n2)c(CC)c(CNc2nc(N[C@@H](Cc3ccc(O)cc3)C(=O)O)nc(N[C@@H](Cc3c[nH]c4ccccc34)C(=O)O)n2)c(CC)c1CNc1nc(N[C@@H](Cc2ccc(O)cc2)C(=O)O)nc(N[C@@H](Cc2c[nH]c3ccccc23)C(=O)O)n1`, for which the CC50 with CCRF-CEM is greater than 250 µM. Moreover, the figures for the EC50 in data set [1] and in [2] were 26 µM and 24 µM, respectively. Besides, in data set [13], the outcome was Active.

As for `O=C(O)[C@H](Cc1ccccc1)Nc1nc(NCCOCCOCCNc2nc(N[C@@H](Cc3ccccc3)C(=O)O)nc(N[C@H](Cc3ccccc3)C(=O)O)n2)nc(N[C@@H](Cc2ccccc2)C(=O)O)n1`, the CC50 with CCRF-CEM was greater than 250 µM. In addition, the EC50 in [1] and in data set [2] was no less than 250 µM in each case.

With `CCc1c(CNc2nc(NCCc3c[nH]c4ccccc34)nc(N[C@@H](Cc3c[nH]c4ccccc34)C(=O)O)n2)c(CC)c(CNc2nc(NCCc3c[nH]c4ccccc34)nc(N[C@@H](Cc3c[nH]c4ccccc34)C(=O)O)n2)c(CC)c1CNc1nc(NCCc2c[nH]c3ccccc23)nc(N[C@@H](Cc2c[nH]c3ccccc23)C(=O)O)n1`, in the data set with CCRF-CEM, the CC50 is greater than 10 µM. The solubility result in data set [15] is “Insoluble”. Further, the EC50 in data set [1] and in data set [2] was greater than 10 µM in each case. Besides, the result in data set [13] was Active.

On to `O=C(O)[C@H](Cc1ccc(O)cc1)Nc1nc(NCc2ccccc2)nc(N[C@@H](Cc2ccc(O)cc2)C(=O)O)n1`, for which, in data set [3], the result was inactive.

For the compound `CCc1c(CNc2nc(N[C@@H](Cc3c[nH]c4ccccc34)C(=O)O)nc(N[C@H](Cc3c[nH]c4ccccc34)C(=O)O)n2)c(CC)c(CNc2nc(N[C@@H](Cc3c[nH]c4ccccc34)C(=O)O)nc(N[C@H](Cc3c[nH]c4ccccc34)C(=O)O)n2)c(CC)c1CNc1nc(N[C@@H](Cc2c[nH]c3ccccc23)C(=O)O)nc(N[C@H](Cc2c[nH]c3ccccc23)C(=O)O)n1`, in the data set on CCRF-CEM, the CC50 was greater than 250 µM. The EC50 in [1] was determined as 19 µM; in data set [2], 22 µM. Besides, in [13], the outcome was Active.

`O=C(O)[C@H](Cc1ccccc1)Nc1nc(NCc2cccc(CNc3nc(N[C@@H](Cc4ccccc4)C(=O)O)nc(N[C@@H](Cc4ccccc4)C(=O)O)n3)c2)nc(N[C@@H](Cc2ccccc2)C(=O)O)n1`: the CC50 in the data set with CCRF-CEM was greater than 10 µM. In data set [15], the solubility entry is recorded as “Insoluble”. The EC50 in data set [1] and in [2] was greater than 10 µM in each case.

As to `O=C(O)C[C@H](Nc1nc(NCCN(CCNc2nc(N[C@@H](CC(=O)O)C(=O)O)nc(N[C@@H](Cc3c[nH]c4ccccc34)C(=O)O)n2)CCNc2nc(N[C@@H](Cc3c[nH]c4ccccc34)C(=O)O)nc(N[C@H](CC(=O)O)C(=O)O)n2)nc(N[C@@H](Cc2c[nH]c3ccccc23)C(=O)O)n1)C(=O)O`, the CC50 in the data set with CCRF-CEM was greater than 250 µM. Moreover, the concentration giving a half-maximal response (EC50) in [1] was 216 µM; in data set [2], greater than 250 µM.

Consider `CN[C@@H]1[C@H](O[C@@H]2O[C@H](CO)[C@@H](O)[C@H](OS(=O)(=O)O)[C@H]2O)[C@@H](O)[C@H](O[C@H]2c3cc(C)c(C(=O)N[C@H](C)C(=O)O)c(O)c3-c3c(cc4c(c3O)C(=O)c3cc(OC)cc(O)c3C4=O)[C@@H]2O)O[C@@H]1C` [PRADIMICIN S], for which the CC50 in the data set with CCRF-CEM was greater than 250 µM.

Regarding `O=C(O)[C@H](Cc1ccc(O)cc1)Nc1nc(NCc2cccc(CNc3nc(N[C@@H](Cc4ccc(O)cc4)C(=O)O)nc(N[C@@H](Cc4ccc(O)cc4)C(=O)O)n3)c2)nc(N[C@@H](Cc2ccc(O)cc2)C(=O)O)n1`, the CC50 with CCRF-CEM was greater than 250 µM. For the same compound, the result in [3] was Active. In addition, the EC50 in data set [1] was found to be 148 µM; in data set [2], 80 µM.

On to `O=C(O)[C@H](Cc1ccccc1)Nc1nc(NCCN(CCNc2nc(N[C@@H](Cc3ccccc3)C(=O)O)nc(N[C@H](Cc3ccccc3)C(=O)O)n2)CCNc2nc(N[C@@H](Cc3ccccc3)C(=O)O)nc(N[C@H](Cc3ccccc3)C(=O)O)n2)nc(N[C@H](Cc2ccccc2)C(=O)O)n1`, for which, in the data set on CCRF-CEM, the CC50 was greater than 250 µM. Further, the EC50 in data set [1] is 65 µM; in [2], 216 µM.

Regarding `CCc1c(CNc2nc(N[C@@H](CC(=O)O)C(=O)O)nc(N[C@@H](Cc3c[nH]c4ccccc34)C(=O)O)n2)c(CC)c(CNc2nc(N[C@@H](CC(=O)O)C(=O)O)nc(N[C@@H](Cc3c[nH]c4ccccc34)C(=O)O)n2)c(CC)c1CNc1nc(N[C@@H](CC(=O)O)C(=O)O)nc(N[C@@H](Cc2c[nH]c3ccccc23)C(=O)O)n1`, the CC50 with CCRF-CEM is greater than 250 µM. Further, the EC50 in data set [1] came to 18 µM; in data set [2] it was 33 µM. In addition, the outcome in data set [13] was Active.

Take `O=C(O)[C@H](Cc1ccc(O)cc1)Nc1nc(NCCOCCOCCNc2nc(N[C@@H](Cc3ccc(O)cc3)C(=O)O)nc(N[C@H](Cc3ccc(O)cc3)C(=O)O)n2)nc(N[C@@H](Cc2ccc(O)cc2)C(=O)O)n1`: in the data set on CCRF-CEM, the CC50 was greater than 250 µM. For the same compound, the EC50 in data set [1] and in data set [2] was greater than 250 µM in each case.
